From patent publication US20150352081A1, “USE OF PIDOTIMOD TO TREAT ATOPIC DERMATITIS” (POLICHEM S.A., priority 2012, published 2015) come the findings set out here.

The test system of series [1] is patients affected by atopic dermatitis. The series can be described thus: Safety/tolerability of the treatment in patients with atopic dermatitis. The class given is in vivo, human. Conditions: 5 patients, two applications daily, 12 weeks. As to the method: (§1) An evaluation of the activity of pidotimod was tested on patients affected by atopic dermatitis, in order to assess the efficacy in terms of improvement of the pathology by means of erythema evaluation. The safety of the treatment was also evaluated. The study was performed in 5 patients (4 females and 1 male, aged between 22-35 years, mean=29) with a clinical diagnosis of atopic dermatitis having as inclusion criteria the affection of the anterior flexural crease of the elbow or of the knee.
(§2) The study product was taken with the composition of the Example 1 at a dosage of two applications daily on the affected skin.
(§3) During the trial, the following visits were performed: • baseline—T0 (before the product use) • intermediate visit—T6 (after 6 weeks of treatment) • final visit—T12 (after 12 weeks of treatment)

Series [2] has the same test system. The series can be described thus: Erythema score in patients with atopic dermatitis treated topically with pidotimod cream. The class given is in vivo, human. More on the design: Effect on erythema score: dose or concentration left out as unconfirmed. The method, then: as §1, §2, §3
The efficacy of the product was expressed by mean of a 5 points erythema score, assessing the score at the baseline, at the intermediate visit and the final one.

Square brackets hold non-standard residues; d marks the D form. Peptide text beside a SMILES is read from it. pGlu = O=C1CC[C@@H](C(=O)O)N1; Thz = O=C(O)[C@@H]1CSCN1

For the compound `O=C1CC[C@@H](C(=O)N2CSC[C@H]2C(=O)O)N1` [pidotimod, (4R)-3-(5-oxo-L-prolyl)-1,3-thiazolidine-4-carboxylic acid] ([pGlu]-[Thz]-OH), in series [1], the Side effects result is on record as “no side effects were reported” and the “Tolerability of the treatment” value is given as “very well tolerated”. Further, the “Student t test p of the erythema score change” value in series [2] (T12 (12 weeks) vs. T0 (baseline)) was less than 0.05. Also, in series [2] (pidotimod cream, two applications daily, 12 weeks, compared to the baseline), the “Effect on erythema score” value was “able to improve the erythema score”.
